Test results published in patent US8334316B2, “Substituted organosulfur compounds and methods of using thereof” (ACEA Biosciences, Inc., priority 2004, dated 2012).
Several values for one entry are separate records, joined by “and”; a condition that tells them apart may be missing. Equal entries are not always repeated. Marks after values point to notes of the source that are not given here.

Experiments:
[1] = system: P388 lymphocytic leukemia; experiment: Murine P388 lymphocytic leukemia model (intraperitoneal transplantation), life span; type: in vivo, mouse; settings: for Average life span X ± SD: observed within 30 days; for Life span ratio %: vs solvent control
Method: Both male and female mice were used.
Preparation and Administration of Test Compounds.
To prepare cancer cells for the P388 murine lymphocytic leukemia model, ascites of a P388 leukemia-bearing mouse were removed under sterile condition. The ascites were diluted in normal saline (1:6 for ascites to normal saline) to prepare cell suspension. 0.2 mL of the cell suspension was then injected intraperitoneally. […] The life span of carrier mice was determined within 30 days. The life span ratio comparing to the negative control group of the carrier mice in each compound treatment group was calculated according to the formula: Life span ratio %=average life span for the compound treatment group/average life span for the negative control group×100% (4)

[2] = system: Bcap-37 human breast cancer; experiment: Bcap-37 human breast cancer xenograft in nude mice, dosing from 24 h after transplantation (Example 3); type: in vivo; settings: for tumor inhibition rate %: vs solvent control
Description: (§1) Both male and female mice were used. […] Test control. […] Preparation and Administration of Test Compounds. […] For human tumor xenograft model, all used materials, including animal food, animal cage, supporting materials and apparatus contacted by animals, were high-pressure sterilized. Nude mice were maintained in laminar flow shelves under SPF condition. After tumor transplantation, mouse weight and tumor size in each compound dosage group were dynamically monitored and plotted.

HCT-8 human colon cancer = HCT-8 human colon cancer xenograft in nude mice (Example 3); type: in vivo
Description: as §1

[3] = 8 mg/kg iv x7 qd, 7 days after transplantation
[4] = 20 mg/kg iv x7 qd, 7 days after transplantation
[5] = 50 mg/kg iv x7 qd, 7 days after transplantation
[6] = 8 mg/kg/d iv x7 qd, 7 day after transplantation
[7] = 20 mg/kg/d iv x7 qd, 7 day after transplantation

Fc1ccc(CSSSCc2ccc(F)cc2)cc1 [ACEA100108, Di(p-fluorobenzyl)trisulfide] was tested, and the “animal No. beginning/end (survivors)” value ([1]; 12.5 mg/kg/d iv x7 qd) was 10/0, the “Average life span X ± SD” value ([1]; 12.5 mg/kg/d iv x7 qd) was 10.6 ± 0.84 and the “Life span ratio %” value ([1]; 12.5 mg/kg/d iv x7 qd) was 109.28%. The “animal No. beginning/end (survivors)” value ([1]; 25 mg/kg/d iv x7 qd) was 10/0, the “Average life span X ± SD” value ([1]; 25 mg/kg/d iv x7 qd) was 10.4 ± 1.17 and the “Life span ratio %” value ([1]; 25 mg/kg/d iv x7 qd) was 107.22%. The “animal No. beginning/end (survivors)” value ([1]; 50 mg/kg/d iv x7 qd) was 10/0, the “Average life span X ± SD” value ([1]; 50 mg/kg/d iv x7 qd) was 10.3 ± 0.95 and the “Life span ratio %” value ([1]; 50 mg/kg/d iv x7 qd) was 106.18%. For the same molecule, the “Anticancer effect on P388 mouse leukemia model” value ([1]; 50, 25, 12.5 mg/kg iv x7 qd) was “did not exhibit anticancer effect”, the “Mice with palpable tumor / total mice” value [2, 3] was 4/6†† and the “Tumor volume (cm^3)” value [2, 3] was 0.01 cm^3. For the same molecule, the “Tumor volume (cm^3)” value ([2]; 8 mg/kg iv x7 qd, 14 d) was 0.068 ± 0.02 cm^3, the “Tumor volume (cm^3)” value ([2]; 8 mg/kg iv x7 qd, 21 d) was 0.214 ± 0.04 cm^3 and the “Tumor volume (cm^3)” value ([2]; 8 mg/kg iv x7 qd, 24 d (end)) was 0.985 cm^3 and 0.985 ± 0.4 cm^3. For the same molecule, the “TV inhibition rate % T/C” value ([2]; 8 mg/kg/d iv x7 qd) was 56.15%, the “Tumor weight” value ([2]; 8 mg/kg/d iv x7 qd) was 1.18 ± 0.23 g and the “Body weight of mice” value ([2]; 8 mg/kg/d iv x7 qd, 0 day (beginning)) was 18.0 g and 18 ± 0.6 g. The “Body weight of mice” value ([2]; 8 mg/kg/d iv x7 qd, 7 day) was 19.5 ± 1 g, the “Body weight of mice” value ([2]; 8 mg/kg/d iv x7 qd, 14 d) was 21.5 ± 1 g and the “Body weight of mice” value ([2]; 8 mg/kg/d iv x7 qd, 21 d) was 22.3 ± 1.6 g. The “Body weight of mice” value ([2]; 8 mg/kg/d iv x7 qd, 24 d (end)) was 23.0 g and 23 ± 1.5 g, the “tumor inhibition rate %” value ([2]; 8 mg/kg/d iv x7 qd) was 31.40% and the “Mice with palpable tumor / total mice” value [2, 4] was 5/6††. The “Tumor volume (cm^3)” value [2, 4] was 0.01 cm^3, the “Tumor volume (cm^3)” value ([2]; 20 mg/kg iv x7 qd, 14 d) was 0.049 ± 0.03 cm^3 and the “Tumor volume (cm^3)” value ([2]; 20 mg/kg iv x7 qd, 21 d) was 0.167 ± 0.03 cm^3. The “Tumor volume (cm^3)” value ([2]; 20 mg/kg iv x7 qd, 24 d (end)) was 0.488 cm^3 and 0.488 ± 0.07 cm^3, the “TV inhibition rate % T/C” value ([2]; 20 mg/kg/d iv x7 qd) was 27.82% and the “Tumor weight” value ([2]; 20 mg/kg/d iv x7 qd) was 0.755 ± 0.09 g. The “Body weight of mice” value ([2]; 20 mg/kg/d iv x7 qd, 0 day (beginning)) was 17.6 g and 17.6 ± 0.8 g, the “Body weight of mice” value ([2]; 20 mg/kg/d iv x7 qd, 7 day) was 19.7 ± 1 g and the “Body weight of mice” value ([2]; 20 mg/kg/d iv x7 qd, 14 d) was 20.8 ± 1 g. The “Body weight of mice” value ([2]; 20 mg/kg/d iv x7 qd, 21 d) was 22.7 ± 1.2 g, the “Body weight of mice” value ([2]; 20 mg/kg/d iv x7 qd, 24 d (end)) was 23.0 g and 23 ± 1.2 g and the “tumor inhibition rate %” value ([2]; 20 mg/kg/d iv x7 qd) was 56.10%. The “Mice with palpable tumor / total mice” value [2, 5] was 3/6††, the “Tumor volume (cm^3)” value [2, 5] was 0.01 cm^3 and the “Tumor volume (cm^3)” value ([2]; 50 mg/kg iv x7 qd, 14 d) was 0.023 ± 0.02 cm^3. For the same molecule, the “Tumor volume (cm^3)” value ([2]; 50 mg/kg iv x7 qd, 21 d) was 0.112 ± 0.03 cm^3, the “Tumor volume (cm^3)” value ([2]; 50 mg/kg iv x7 qd, 24 d (end)) was 0.310 cm^3 and 0.31 ± 0.05 cm^3 and the “TV inhibition rate % T/C” value ([2]; 50 mg/kg/d iv x7 qd) was 17.67%. For the same molecule, the “Tumor weight” value ([2]; 50 mg/kg/d iv x7 qd) was 0.617 ± 0.09 g, the “Body weight of mice” value ([2]; 50 mg/kg/d iv x7 qd, 0 day (beginning)) was 18.1 g and 18.1 ± 1.1 g and the “Body weight of mice” value ([2]; 50 mg/kg/d iv x7 qd, 7 day) was 18.8 ± 0.8 g. For the same molecule, the “Body weight of mice” value ([2]; 50 mg/kg/d iv x7 qd, 14 d) was 20.5 ± 1 g, the “Body weight of mice” value ([2]; 50 mg/kg/d iv x7 qd, 21 d) was 22.2 ± 1.2 g and the “Body weight of mice” value ([2]; 50 mg/kg/d iv x7 qd, 24 d (end)) was 23.0 g and 23 ± 1.2 g. For the same molecule, the “tumor inhibition rate %” value ([2]; 50 mg/kg/d iv x7 qd) was 64.13%, the “TV inhibition rate % T/C” value (HCT-8 human colon cancer; 8 mg/kg/d iv x7 qd) was 55.73% and the “Tumor weight” value (HCT-8 human colon cancer; 8 mg/kg/d iv x7 qd) was 1.30 ± 0.23 g. The “Mouse Body weight” value (HCT-8 human colon cancer; 8 mg/kg/d iv x7 qd, 0 Day (beginning)) was 18.8 g and 18.8 ± 0.8 g, the “Mouse Body weight” value (HCT-8 human colon cancer; 8 mg/kg/d iv x7 qd, 7 d) was 19.7 ± 0.8 g and the “Mice with palpable tumor / total mice” value (HCT-8 human colon cancer; [6]) was 6/6††. For the same molecule, the “Tumor volume (cm^3)” value (HCT-8 human colon cancer; [6]) was 0.01 cm^3, the “Mouse Body weight” value (HCT-8 human colon cancer; 8 mg/kg/d iv x7 qd, 14 d) was 21.3 ± 1.2 g and the “Tumor volume (cm^3)” value (HCT-8 human colon cancer; 8 mg/kg/d iv x7 qd, 14 d) was 0.166 ± 0.05 cm^3. For the same molecule, the “Mouse Body weight” value (HCT-8 human colon cancer; 8 mg/kg/d iv x7 qd, 21 d) was 21.8 ± 1.2 g, the “Tumor volume (cm^3)” value (HCT-8 human colon cancer; 8 mg/kg/d iv x7 qd, 21 d) was 0.379 ± 0.04 cm^3 and the “Mouse Body weight” value (HCT-8 human colon cancer; 8 mg/kg/d iv x7 qd, 25 d (end)) was 22.5 g and 22.5 ± 1 g. For the same molecule, the “Tumor volume (cm^3)” value (HCT-8 human colon cancer; 8 mg/kg/d iv x7 qd, 25 d (end)) was 0.870 cm^3 and 0.87 ± 0.15 cm^3, the “tumor inhibition rate %” value (HCT-8 human colon cancer; 8 mg/kg/d iv x7 qd, vs solvent control) was 15.03% and the “TV inhibition rate % T/C” value (HCT-8 human colon cancer; 20 mg/kg/d iv x7 qd) was 41.89%. For the same molecule, the “Tumor weight” value (HCT-8 human colon cancer; 20 mg/kg/d iv x7 qd) was 1.10 ± 0.23 g, the “Mouse Body weight” value (HCT-8 human colon cancer; 20 mg/kg/d iv x7 qd, 0 Day (beginning)) was 18.5 g and 18.5 ± 1 g and the “Mouse Body weight” value (HCT-8 human colon cancer; 20 mg/kg/d iv x7 qd, 7 d) was 19.5 ± 1 g. For the same molecule, the “Mice with palpable tumor / total mice” value (HCT-8 human colon cancer; [7]) was 6/6††, the “Tumor volume (cm^3)” value (HCT-8 human colon cancer; [7]) was 0.01 cm^3 and the “Mouse Body weight” value (HCT-8 human colon cancer; 20 mg/kg/d iv x7 qd, 14 d) was 20.7 ± 1 g. The “Tumor volume (cm^3)” value (HCT-8 human colon cancer; 20 mg/kg/d iv x7 qd, 14 d) was 0.122 ± 0.04 cm^3.
